Source: patent publication US9605027B2, “Polypeptides that bound to IL-23 receptor and inhibit binding of IL-23 and cell signaling thereof” (Medical Diagnostic Laboratories, LLC, priority 2011, dated 2017)
Peptide text beside a SMILES is read from it.

How the values were obtained:
[1] = molecular target: IL-23 induced IL-22 production in human PBMCs (Homo sapiens, UniProt Q5VWK5); assay: IL-22 production induced by IL-23 in human PBMC; format: cell-based; conditions: IL-23 2 ng/ml, ELISA; read-out: IC50, inhibition of IL-22 production
IL-23 induced IL-22 production in human PBMCs, sequence (Q5VWK5 24-629 limits assumed): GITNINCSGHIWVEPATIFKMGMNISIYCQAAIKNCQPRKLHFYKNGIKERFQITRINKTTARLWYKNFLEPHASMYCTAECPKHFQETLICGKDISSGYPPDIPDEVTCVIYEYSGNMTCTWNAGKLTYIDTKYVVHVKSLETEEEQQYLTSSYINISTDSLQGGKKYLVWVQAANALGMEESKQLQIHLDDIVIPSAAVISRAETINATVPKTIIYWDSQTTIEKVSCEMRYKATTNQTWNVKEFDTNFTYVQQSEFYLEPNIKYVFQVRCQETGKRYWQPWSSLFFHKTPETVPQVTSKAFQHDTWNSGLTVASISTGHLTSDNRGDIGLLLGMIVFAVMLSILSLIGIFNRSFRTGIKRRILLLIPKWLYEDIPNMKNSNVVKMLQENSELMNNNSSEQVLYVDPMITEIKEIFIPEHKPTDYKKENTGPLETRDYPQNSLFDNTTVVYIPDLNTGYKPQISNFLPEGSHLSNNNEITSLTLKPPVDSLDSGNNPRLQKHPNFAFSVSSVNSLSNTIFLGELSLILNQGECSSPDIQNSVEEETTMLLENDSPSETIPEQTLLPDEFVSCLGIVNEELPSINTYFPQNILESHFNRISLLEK
Experimental: Peripheral blood mononuclear cells (PBMCs) were isolated from heparinized venous whole blood from healthy donors by density gradient centrifugation using Ficoll-Paque (Sigma-Aldrich, St Louis, Mo., USA). Human venous blood was purchased as anonymous buffy coats from the New Jersey Blood Transfusion Service. After isolation, the PBMCs were cultured in RPMI-1640 medium (Invitrogen-Gibco, Carlsbad, Calif.) supplemented with 10% heat-inactivated fetal bovine serum (Invitrogen-Gibco) and 1 mM of glutamine (Invitrogen-Gibco) at 37° C.
Isolated PBMCs (5×10^6 cells/ml) were cultured in the presence of […] and IL-18 (20 ng/ml). A serial dilution of IL-23 (from 0-2 ng/ml) was added to the cell culture for 30 hours. We measured the production of IL-22 by ELISA (Catalog #88-7522, eBioscience, San Diego, Calif.) according to manufacturer's protocol).
In order to measure the IC50 value of cyclic peptide no. 2HT AA (SEQ ID NO: 177), the cells were treated with a fixed amount of IL-23 cytokine (2 ng/ml) in the presence of a serial dilution of cyclic peptide no. 2HT AA (SEQ ID NO: 177). The cyclic peptide (SEQ ID NO: 177) inhibits IL-23 cytokine in PBMCs in a dose-dependent manner. […] Thus, the cyclic peptide no.

[2] = test system: IL-23 induced IL-17F production in human Th17 cells; assay: IL-17F production induced by IL-23 in in vitro differentiated human Th17 cells; format: cell-based; conditions: IL-23 1 ng/ml, peptide 0-10 μM, ELISA; read-out: IC50, inhibition of IL-17F production
Experimental: To that end, we designed and performed an in vitro assay using human differentiated Th17 cells. CD4+ naive T cells were negatively enriched using a human CD4+ naive T cells enrichment kit (StemCell Technologies, Catalog #19155). The purity of enriched CD4+ naive T cells was determined by FACS analysis. 1×10^6 cells/ml of CD4+ naive T cells were differentiated into Th17 cells under Th17 culture condition (CD3/28 beads, 10 ng/ml of IL-1β, 10 ng/ml of IL-6, 10 ng/ml of IL-23 and 1 ng/ml of TGF-β) for 5 days. All cytokines were purchased from Humanzyme. The CD3/28 beads were used according to the manufacturer's instructions (Miltenyi Biotec). Differentiation of Th17 cells was confirmed by the production of IL-17F using ELISA.
Experiments were performed where cyclic peptide no. 2HT AA (SEQ ID NO: 177) was added to the differentiated Th17 cells 30 minutes before the addition of IL-23 cytokine Th17 cells were stimulated for 2 days. Ionomycin (1 μg/ml)/PMA (50 ng/ml) (BD biosciences, San Jose, Calif.) were added to the stimulated cells 4 hours before the collection of media to measure the IL-17F production by ELISA (Catalog #88-7478, eBioscience, San Diego, Calif.). […]
CD4+ naive T cells were negatively enriched using human CD4+ naive T cells enrichment kit (StemCell Technologies, Catalog #19155). The purity of naive T cells was measured by FACS analysis. […]

IC50 [1]: 0.337 µM | IC50 [2]: 0.339 µM
SMILES: CSCC[C@@H]1NC(=O)[C@H](CCCCN)NC(=O)[C@H](C)NC(=O)[C@H](C)NC(=O)[C@H](CS)NC(=O)[C@H](CC(N)=O)NC(=O)[C@H](CCCCN)NC(=O)[C@H](CC(C)C)NC(=O)[C@H](Cc2c[nH]c3ccccc23)NC(=O)[C@H](Cc2ccc(O)cc2)NC(=O)[C@H](CC(=O)O)NC(=O)[C@H](C(C)C)NC(=O)[C@H](Cc2c[nH]c3ccccc23)NC(=O)[C@H]([C@@H](C)O)NC1=O [2HT AA] (cyclo(AAKMTWVDYWLKNC))
